The results in this text go back to patent US20260053931A1, “MDM2 TARGETING PROTACS” (THE WISTAR INSTITUTE OF ANATOMY AND BIOLOGY, priority 2023, published 2026).

One data set deals with MDA-MB-436 mammospheres. Nature of the data set: Area of formed mammospheres, MDA-MB-436. It counts as cell-based, human. The following applies: MDA-MB-436, 3-fold lower concentration than the MDM2 inhibitors, 72 hr. The protocol: (§1) FIGS. 21A-21E show the apoptosis induction of p53-inactivated TNBC cells in 2D and 3D cultures by the MDM2-PROTAC YX-02-030. A-B. Colony formation assays (A. Triplicate, 12 days) and mammosphere formation (B. Triplicate 72 hrs) of MDA-MB-231 and MDA-MB-436 cells in the presence of the indicated compounds or DMSO control (−); representative pictures shown. C-E. Formed mammospheres of MDA-MB-231 and MDA-MB-436 cells were treated with the compounds indicated or DMSO control (−), and area (C. n=10 mammospheres, relative to pre-treatment area, 72 hr), real-time imaging (IncuCyte) and quantification of Caspase-3/7 activity (D. n=4-5 wells/compound), and survival/ATP assays (E. Quadruplicate, 72 hr) were performed; representative images shown; scale bar 300 m. Mean±SEM (A-C and E). For A, *P<0.0001 and **P<0.0001, comparing 1 M and 2 M PROTAC, respectively, to control compounds and DMSO vehicle control. For B, *P<0.0046, **P<0.0001, and ***P<0.0001, comparing 0.5 M, 1 M, and 2 M PROTAC, respectively, to control compounds and DMSO vehicle control. For C, *P<0.0001 and **P<0.0001, comparing 2 M and 4 M/6 M PROTAC, respectively, to control compounds and DMSO vehicle control. […]
(§2) These were then evaluated in 3D culture as to when the YX-02-030 was effective at preventing TNBC cell mammosphere formation and eliminating already formed mammospheres. […]

Data set [1] deals with MDA-MB-231 and MDA-MB-436 TNBC xenografts. Nature of the data set: TNBC xenografts in nude mice. It counts as in vivo, mouse. As to the method: A-G. MDA-MB-231 and MDA-MB-436 cells were injected (subcutaneous) into one flank of nude mice and allowed to form palpable tumors (approximately 80 mm^3). Mice (randomized into tumor-size matched groups) were treated (intraperitoneal injection) with MDM2-PROTAC YX-02-030, RG7112D, or vehicle control at 50 mg/kg once daily for 14 days (treatment start, green arrow and stop, red arrow). Kaplan-Meier survival analysis (A) and tumor volume (B; individual, left and averaged, right) were evaluated overtime. C-G, After 72 hr of treatment, tumors (n=3/group; −, vehicle control) were harvested and protein expression evaluated by Western blotting (C), Annexin-V positivity (D), Caspase-3 activity (E), apoptotic subG1 DNA content (F), and viability by Trypan Blue dye exclusion (G). Mean±SD (B (right), D-G). Log-rank tests for A, and longitudinal tumor growth analysis using 2-way ANOVA with Bonferroni correction for B; P-values indicated. *P<0.0021 for D, *P<0.0001 for E, *P<0.0147 for F, and *P<0.0014 for G were determined using unpaired two-tailed t-tests, comparing PROTAC to vehicle control.
Prior to testing YX-02-030 tumors in vivo, mouse liver microsome and pharmacokinetic (PK) studies were performed to determine its stability in vivo. […] Due to its stability in vivo, the effectiveness of YX-02-030 was then evaluated at killing TNBC tumors in mice. Xenografts of MDA-MB-231 and MDA-MB-436 TNBC cells grew to ˜80 mm^3, and then tumor size-matched mice were treated with YX-02-030, RG7112D control compound, or vehicle control. […] To confirm YX-02-030 was hitting its target (MDM2) in the TNBC tumors, tumors were harvested from a cohort of mice after 72 hours of YX-02-030 treatment. […] The toxicity of YX-2-228 was analyzed as compared to both the vehicle and YX-2-30. (FIGS. 25A & 25B).

Data set [2] relates to MDA-MB-231 and MDA-MB-436 cells. Nature of the data set: Mammosphere formation in 3D culture. The following applies: each concentration tested, 72 hrs, compared to MDM2 inhibitors and vehicle. It counts as cell-based, human. As to the method:
as §1, §2

Another data set addresses Mdm2 (Homo sapiens, UniProt Q00987). As to the kind of experiment: Western blot of TNBC cells treated with PROTAC. It counts as cell-based. On the set-up: endogenous in cells; MDA-MB-231 (A9). The source says:
A. Chemical structure of MDM2-PROTAC. B-C. MDM2:p53 and MDM2:VHL-HIF1α peptide binding inhibition determined by homogeneous time-resolved fluorescence (HTRF, triplicate, mean±SEM, B) and surface plasmon resonance (SPR, triplicate, mean±SD, C. Binding assays by the indicated compounds. Graphical data is representative of 3 separate experiments. D. AlphaScreen of ternary complex using GST-MDM2 and HIS-VHL; mean±SD. E-F. Western blot analysis for the proteins indicated following a dose-titration (E, 16 hr) and time course (F, 6 μM) with the PROTAC or vehicle control (DMSO, −) in MDA-MB-231 (p53-mutant) and MDA-MB-436 (p53-delete) cells. G-K. Western blot analysis for the proteins indicated following treatment with the MDM2-PROTAC and/or the neddylation activating enzyme inhibitor MLN4924 G.
PROTACs work by forming a ternary complex consisting of the target protein, the PROTAC, and the recruited E3 ubiquitin ligase-E2 complex, causing ubiquitination of the target protein, marking it for 26S proteasome-mediated degradation (Nalawansha & Crews, 2020). FIG. 19D confirms that the PROTAC forms a […] complex. […] Similarly, when the proteasome was inhibited with MG132, MDM2 protein levels were maintained despite YX-02-030 exposure (FIG. 19H). Therefore, YX-02-030 targets MDM2 protein for 26S proteasome-mediated degradation in TNBC cells and this requires the ubiquitin cascade.

The next data set concerns non-cancerous cells. Nature of the data set: Western blot and MTT assay, non-cancerous cells.
Where [3] appears, read: 50 mg/kg IP once daily for 14 days, compared to control mice.

Sequence of Mdm2 (Q00987 whole entry): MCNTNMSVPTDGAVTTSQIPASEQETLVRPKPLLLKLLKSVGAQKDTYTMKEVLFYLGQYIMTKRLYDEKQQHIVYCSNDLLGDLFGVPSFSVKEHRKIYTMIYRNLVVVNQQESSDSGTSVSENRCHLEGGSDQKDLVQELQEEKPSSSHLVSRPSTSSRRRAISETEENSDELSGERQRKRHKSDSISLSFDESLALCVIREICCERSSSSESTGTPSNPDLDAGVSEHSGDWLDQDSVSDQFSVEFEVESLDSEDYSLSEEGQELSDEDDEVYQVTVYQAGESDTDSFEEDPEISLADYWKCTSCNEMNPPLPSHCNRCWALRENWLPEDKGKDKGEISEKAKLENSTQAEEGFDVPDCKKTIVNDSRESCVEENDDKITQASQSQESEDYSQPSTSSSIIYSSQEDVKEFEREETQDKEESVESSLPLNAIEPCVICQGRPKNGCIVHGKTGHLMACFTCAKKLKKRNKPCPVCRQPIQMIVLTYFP

On to `CCOc1cc(C(C)(C)C)ccc1C1=N[C@](C)(c2ccc(Cl)cc2)[C@](C)(c2ccc(Cl)cc2)N1C(=O)N1CCN(CC(=O)NCCOCCOCCOCC(=O)N[C@H](C(=O)N2C[C@H](O)C[C@H]2C(=O)NCc2ccc(-c3scnc3C)cc2)C(C)(C)C)CC1` (racemic) [YX-02-030], for which, in the data set on MDA-MB-436 mammospheres, the “reduction of mammosphere area” value amounted to 43.8%. In data set [1] (setting [3]), the mouse survival result is given as “significantly extended mouse survival” and the tumor volume entry was “decreased tumor volume”. For the same molecule, the mouse weight entry in data set [1] (nude mice, 50 mg/kg IP, 14 consecutive days) was “mouse weight was maintained”. Further, the “MDM2 protein in tumors” value in data set [1] (tumors harvested after 72 hours of treatment) is “loss of MDM2 protein”. Moreover, the mammosphere formation result in data set [2] is on record as “significantly fewer mammospheres formed”. Moreover, the MDM2 protein level entry on Mdm2 (MDA-MB-231 (mutated p53) and MDA-MB-436 (deleted p53), dose titration 16 hr, time course 6 μM) was “loss of MDM2 protein”. The VHL protein level result at Mdm2 (Western blot) is given as “not degraded”. Besides, in the data set on non-cancerous cells, the “sensitivity of non-cancerous cells” value is “resistant”.
